Data from patent US6242452A, “7-aminopyrido[2,3-D]pyrimidine derivatives” (Nippon Zoki Pharmaceutical Co., Ltd., priority 1998, dated 2001).
Each block holds one compound with its values, some of them ahead of it.

How the values were obtained:
[1] = Concentration in blood of guinea pigs; assay type: in vivo; conditions: oral, 30 mg/kg in 1% methyl cellulose, plasma, HPLC; for AUC / Cmax / half-life / Tmax: guinea pig; for AUC: read-out: AUC 0-lim, area under a curve of concentration in blood vs. time; for Cmax: read-out: Cmax, maximum concentration in blood; for half-life: read-out: T1/2, half life in blood (converted); for Tmax: read-out: Tmax, time required for achieving the maximum concentration in blood
Method: Concentration in Blood of Guinea Pigs
Each test substance was orally administered at a dose of 30 mg/kg. It was suspended in 1% methyl cellulose and made into a preparation so as to make the administering dose 5 mL/kg. A group consisted of four animals and blood was collected after 30 minutes, 1 hour, 2 hours, 4 hours, 6 hours and 24 hours from the administration. (A feed was given after collection of the blood after 6 hours). Thus, each about […] (corresponding to four capillary tubes) of blood were collected with intervals using a heparintreated capillary tube and plasma was separated by a hematocrit centrifuge to prepare a plasma sample. A plasma sample of about […] was preserved at -80° C. until the measurement. Methanol ([…]) was added to […] of the plasma followed by mixing, the mixture was centrifuged at 1500×g for ten minutes at […] and the separated supernatant liquid was filtered through a membrane filter of […]. The filtrate was used as a sample for an HPLC, analyzed under the analyzing condition that the column was 100 mm×4.6 mm (inner diameter) of TSK-gel Super ODS, the flow rate was 1.0 mL/minute, the column temperature was 40° C., an injection amount was […], detection was done by UV of 225 nm and the mobile phase was water-acetonitrile (75:25 in terms of % by volume) and the maximum concentration in blood (Cmax), time required for achieving the maximum concentration in blood (Tmax), half life in blood (T1/2) and area under a curve of concentration in blood vs. time (AUC 0-lim) were determined. RS-25344 (Cell Signalling, 7(5), 527 (1995); Mol. Pharmacol., 48, 616 (1995)) and CR-77059 (J. Med. Chem., 34, 624 (1991); J. Pharmacol. Exp. Ther., 272, 3,1313 (1995)) were used as control drugs.

Mice = assay: Influence on general symptoms of mice (modified Irwin's method); assay type: in vivo; conditions: for Death: oral, 5 mice per group, until the next day
Method: Influence on General Symptoms of Mice
Mice having no abnormality in their appearance before administration of the test drugs were selected, and five mice were used for each group. Oral administration of the test compound was carried out and, 30 minutes, one hour and two hours thereafter, observations were conducted according to the modified method of Irwin's method for observing the general symptoms of mice. Degree of the symptom was evaluated in terms of (+) and (-) and, when the symptom was apparently severe, it was mentioned as (++). Also, death was observed until the next day of the administration.
1) Suppression of spontaneous motility: When mice were transferred from a home cage to a cage for symptom observation and, if motion of the mice was less than the non-administered group at that time, that was evaluated as (+).
2) Muscle relaxation: When forefeet of mice were hung on a wire stretched horizontally so that the mice were hung by means of the forefeet and, if their reaction at that time for climbing up the wire took a longer time than the non-administered group, that was evaluated as (+).
4) Blepharoptosis: If 1/4 or more was closed as compared with the non-administered group, that was evaluated as (+).
5) Salivation: If salivation was noted a little around the mouth, that was evaluated as (+).
6) Death: If dead case was noted, that was mentioned as such.
5-Amino-1,3-diethyl-1,2,3,4-tetrahydropyrido[2,3-d]-pyrimidine-2,4-dione (Control Compound B; a compound mentioned in Japanese Laid-Open Patent Publication Sho-63/45279 and in U.S. Pat. Nos. 4,808,587 and 5,776,942) was used as a control drug.

[2] = system: smooth muscle of blood vessel isolated from rats; assay: Influence on continuous constriction of smooth muscle of blood vessel isolated from rats (noradrenaline-constricted pulmonary main artery); assay type: cell-based; conditions: rat pulmonary main artery, constricted with 10^-7 M noradrenaline, 37° C.; read-out: EC50, concentration showing 50% of the maximum reaction (relaxation)
Method: Influence on Continuous Constriction of […] Smooth Muscle of Rats
The back of the head of a rat was struck to cause a cerebral concussion, carotid arteries on both sides were immediately cut and the pulmonary main artery was isolated. The isolated artery was fully aerated with a mixed gas (95% O2 and 5% CO2), placed in a Krebs-Henselite solution warmed at 37° C., excessive tissues were removed as much as possible and a spiral sample (having a width of about 2 mm and a length of 15 mm) was prepared according to a method of Furchgott, et al. The blood vessel sample was hung with a load of about 0.5 g in a 5-mL Magnus vessel filled with a Krebs-Henseleit solution and aerated with a mixed gas (95% O2 and 5% CO2). After the sample was allowed to stand for 30 minutes to one hour, it was treated with noradrenaline (final concentration: 10^-7 M) and the constricting reaction was amplified via an amplifier for blood pressure using an FD pickup and recorded on a recorder. Noradrenaline (10^-7 M) was repeatedly applied and, after confirming that the constriction became constant, 10^-7 M of noradrenaline was applied. After the maximum shrinking reaction of the smooth muscle became constant, the test compound was added thereto starting from a low concentration cumulatively to investigate the relaxing action. A dose vs. reaction curve was prepared from the isotonic reaction of various concentrations of the test compound and an EC50, a concentration showing 50% of the maximum reaction, was determined.

[3] = system: airway smooth muscle isolated from guinea pigs; assay: Relaxing action to smooth muscle of airway of guinea pigs (histamine-constricted); assay type: cell-based; conditions: Cavia porcellus; guinea pig airway, constricted with 10^-4 M histamine, cumulative addition; read-out: EC50, concentration showing 50% of the maximum reaction (relaxation)
Text: […] Action to Smooth Muscle of Airway of Guinea Pigs A guinea pig was killed by draining out the blood, the airway was isolated, and four airway pieces having a width of about 1 cm cut along the cartilage were connected by silk yarn to prepare an airway smooth muscle sample. The sample was hung with a load of about 0.5 g in a 5-mL Magnus vessel filled with a Tyrode solution and aerated with a mixed gas (95% O2 and 5% CO2). […] This was repeatedly treated with 10^-5 M of histamine and, after confirming that the constriction became constant, it was treated with 10^-4 M of histamine. After the maximum constriction reaction of the smooth muscle became constant, the test compound was added thereto starting from a low concentration cumulatively to investigate the relaxing action. […] Pat. […] Pat. No. 4,808,587 to Go et al and in U.S. Pat. No. 5,776,942 to Furukawa et al) and theophylline were used as control agents.

Compound: COC(=O)c1cccc(-n2c(=O)n(Cc3ccccc3)c(=O)c3cccnc32)c1 [CP-77059, reference compound]
Concentration in blood (in words, Table 6) [1]: less than identification limit

Compound: CCn1c(=O)c2ccc(N)nc2n(-c2cc(OC)cc(OC)c2)c1=O [Compound 5, 7-amino-3-ethyl-1-(3,5-dimethoxyphenyl)-1,2,3,4-tetrahydropyrido[2,3-d]pyrimidine-2,4-dione]
Blepharoptosis (Mice; mouse, in vivo, po, 1000 mg/kg): (+) × 3
Muscle relaxation (Mice; mouse, in vivo, po, 1000 mg/kg): (+) × 3
Suppression of spontaneous motility (Mice; mouse, in vivo, po, 1000 mg/kg): (+) × 2
Death (Mice; 1000 mg/kg): 0
EC50 [2]: > 100000 nM
AUC [1]: 458 µg·h/mL
Cmax [1]: 30000 ng/mL
half-life [1]: 12.1 h
Tmax [1]: 3 h
EC50 [3]: 1700 nM

Compound: CCCn1c(=O)c2ccc(N)nc2n(-c2cc(OC)cc(OC)c2)c1=O [Compound 6, 7-amino-1-(3,5-dimethoxyphenyl)-1,2,3,4-tetrahydro-3-propylpyrido[2,3-d]pyrimidine-2,4-dione]
Blepharoptosis (Mice; mouse, in vivo, po, 300 mg/kg): (+) × 1
Suppression of spontaneous motility (Mice; mouse, in vivo, po, 300 mg/kg): (+) × 1
Blepharoptosis (Mice; mouse, in vivo, po, 1000 mg/kg): (+) × 2
Muscle relaxation (Mice; mouse, in vivo, po, 1000 mg/kg): (+) × 2
Suppression of spontaneous motility (Mice; mouse, in vivo, po, 1000 mg/kg): (+) × 2
Death (Mice; 300 mg/kg): 0
Death (Mice; 1000 mg/kg): 0
EC50 [2]: > 100000 nM
AUC [1]: 256 µg·h/mL
Cmax [1]: 13700 ng/mL
half-life [1]: 28.4 h
Tmax [1]: 4 h
EC50 [3]: 400 nM

Compound: CCCCn1c(=O)c2ccc(N)nc2n(-c2cc(OC)cc(OC)c2)c1=O [Compound 7, 7-amino-3-butyl-1-(3,5-dimethoxyphenyl)-1,2,3,4-tetrahydropyrido[2,3-d]pyrimidine-2,4-dione]
Blepharoptosis (Mice; mouse, in vivo, po, 300 mg/kg): (+) × 1
Muscle relaxation (Mice; mouse, in vivo, po, 300 mg/kg): (+) × 2
Suppression of spontaneous motility (Mice; mouse, in vivo, po, 300 mg/kg): (+) × 2
Muscle relaxation (Mice; mouse, in vivo, po, 1000 mg/kg): (+) × 3
Death (Mice; 300 mg/kg): 0
Death (Mice; 1000 mg/kg): 0
AUC [1]: 28.6 µg·h/mL
Cmax [1]: 1600 ng/mL
half-life [1]: 131 h
Tmax [1]: 15 h
EC50 [3]: 590 nM

Compound: COc1cc(OC)cc(-n2c(=O)n(Cc3ccccc3)c(=O)c3ccc(N)nc32)c1 [Compound 8, 7-amino-3-benzyl-1-(3,5-dimethoxyphenyl)-1,2,3,4-tetrahydropyrido[2,3-d]pyrimidine-2,4-dione]
EC50 [3]: 320 nM

Compound: COc1cc(OC)cc(-n2c(=O)n(CC(C)C)c(=O)c3ccc(N)nc32)c1 [Compound 15]
EC50 [2]: > 100000 nM
AUC [1]: 134 µg·h/mL
Cmax [1]: 10100 ng/mL
half-life [1]: 9.8 h
Tmax [1]: 2.3 h
EC50 [3]: 210 nM

Compound: COc1cc(OC)cc(-n2c(=O)n(Cc3ccncc3)c(=O)c3ccc(N)nc32)c1 [Compound 18, 7-amino-1-(3,5-dimethoxyphenyl)-1,2,3,4-tetrahydro-3-(4-picolyl)pyrido[2,3-d]pyrimidine-2,4-dione]
EC50 [2]: > 100000 nM
EC50 [3]: 61 nM

Compound: COc1ccc(Cn2c(=O)c3ccc(N)nc3n(-c3ccccc3)c2=O)cc1 [Compound 28, 7-amino-1,2,3,4-tetrahydro-3-(4-methoxybenzyl)-1-phenylpyrido[2,3-d]pyrimidine-2,4-dione]
EC50 [3]: 45 nM

Compound: Nc1ccc2c(=O)n(Cc3ccc(F)cc3)c(=O)n(-c3ccccc3)c2n1 [Compound 29, 7-amino-3-(4-fluorobenzyl)-1,2,3,4-tetrahydro-1-phenylpyrido[2,3-d]pyrimidine-2,4-dione]
EC50 [3]: 76 nM

Compound: CCn1c(=O)c2ccc(N)nc2n(CC)c1=O [Control Compound A, 7-Amino-1,3-diethyl-1,2,3,4-tetrahydropyrido-[2,3-d]pyrimidine-2,4-dione, reference compound]
EC50 [3]: 1010 nM

Compound: CCn1c(=O)c2c(N)ccnc2n(CC)c1=O [Control Compound B, 5-Amino-1,3-diethyl-1,2,3,4-tetrahydropyrido[2,3-d]-pyrimidine-2,4-dione, reference compound]
Blepharoptosis (Mice; mouse, in vivo, po, 100 mg/kg): (+) × 2
Muscle relaxation (Mice; mouse, in vivo, po, 100 mg/kg): (+) × 3
Passiveness (Mice; mouse, in vivo, po, 100 mg/kg): (+) × 1
Suppression of spontaneous motility (Mice; mouse, in vivo, po, 100 mg/kg): (+) × 3
Suppression of spontaneous motility (Mice; mouse, in vivo, po, 300 mg/kg): (+) × 3
Death (Mice; 100 mg/kg): 0
Death (Mice; 300 mg/kg): 0
EC50 [3]: 830 nM

Compound: O=c1c2cccnc2n(-c2cccc([N+](=O)[O-])c2)c(=O)n1Cc1ccncc1 [RS-25344, reference compound]
Concentration in blood (in words, Table 6) [1]: less than identification limit

Compound: Cn1c(=O)c2[nH]cnc2n(C)c1=O [theophylline, reference compound]
EC50 [3]: 51000 nM

Second part, the compound after the results:

EC50 [2]: 50100 nM
EC50 [3]: 23 nM
Compound: Nc1ccc2c(=O)n(Cc3ccccc3)c(=O)n(-c3ccccc3)c2n1 [Compound 16, 7-amino-3-benzyl-1,2,3,4-tetrahydro-1-phenylpyrido[2,3-d]pyrimidine-2,4-dione]

EC50 [3]: 19 nM
Compound: Nc1ccc2c(=O)n(Cc3ccncc3)c(=O)n(-c3ccccc3)c2n1 [Compound 17, 7-amino-1,2,3,4-tetrahydro-1-phenyl-3-(4-picolyl) pyrido[2,3-d]pyrimidine-2,4-dione]

EC50 [3]: 21 nM
Compound: Nc1ccc2c(=O)n(Cc3cccs3)c(=O)n(-c3ccccc3)c2n1 [Compound 37, 7-amino-1,2,3,4-tetrahydro-1-phenyl-3-(2-thienylmethyl)pyrido [2,3-d]pyrimidine-2,4-dione]

EC50 [3]: 40 nM
Compound: Nc1ccc2c(=O)n(Cc3ccco3)c(=O)n(-c3ccccc3)c2n1 [Compound 38, 7-amino-3-(2-furfuryl)-1,2,3,4-tetrahydro-1-phenylpyrido [2,3-d]pyrimidine-2,4-dione]

EC50 [3]: 27 nM
Compound: Nc1ccc2c(=O)n(Cc3ccsc3)c(=O)n(-c3ccccc3)c2n1 [Compound 39, 7-amino-1,2,3,4-tetrahydro-1-phenyl-3-(3-thienylmethyl)pyrido [2,3-d]pyrimidine-2,4-dione]
